Laboratory results taken from patent US20060094649A1, “Hla-a1,-a2,-a3,-a24,-b7, and-b44 tumor associated antigen peptides and compositions” (priority 2002, published 2006).
pIC50: −log10 of the molar value. “Also recorded” adds a separate entry of the source. Like-named read-outs stand apart in the source and are kept apart here. No end group written: not given here.

Tests used:
[1] = system: wildtype peptide-pulsed target cells; test: CTL recognition of wildtype peptide-pulsed targets; type: cell-based, human; conditions: for pulsed EHM target cell line: positive responses/total tested, positive = 10% specific lysis above background or twice background and at least 50 pg IFNg/well in at least one of 48 wells
[2] = system: tumor cell lines expressing the TAA; test: CTL recognition of endogenous targets (tumor cell lines expressing the TAA); type: cell-based, human; conditions: for Tumor target cell line: only wells positive for peptide-pulsed targets
[3] = co-emulsified with HPV-derived CTL epitopes; cited from earlier work
HLA-A*0301 = HLA-A*0301 (Homo sapiens, UniProt P04439); test: Class I peptide-binding assay, HLA-A*0301
HLA-A*1101 = HLA-A*1101 (Homo sapiens, UniProt P04439, A114D/D185E/E176A/F33Y/L180Q/S129P/T187R); test: Class I peptide-binding assay, HLA-A*1101
HLA-A*3101 = HLA-A*3101 (Homo sapiens, UniProt P04439, A270S/D185E/E176V/E277Q/F33T/G231S/G80R/H175R/I121M/I218V/I322F/K168Q/L300P/L318F/M331R/P217A/Q94H/R138Q/T323A/T345S/T97I/V358M); test: Class I peptide-binding assay, HLA-A*3101; conditions: Table 16b, Her2/neu-derived
HLA-A*3301 = HLA-A*3301 (Homo sapiens, UniProt P04439, A270S/D185E/E176V/E277Q/E87N/F33T/G231S/H175R/I121M/I218V/I322F/K168Q/K210R/L300P/L318F/M331R/P217A/Q86R/Q94H/R138Q/T323A/T345S/T97I/V358M/Y195H); test: Class I peptide-binding assay, HLA-A*3301; conditions: Table 16b, Her2/neu-derived
HLA-A*6801 = HLA-A*6801 (Homo sapiens, UniProt P04439, A269V/D185E/E176V/E277Q/E87N/F33Y/G231S/I121M/I166T/I218V/L180W/L300P/L318F/N151K/P208A/P217A/Q86R/R169H/T345S); test: Class I peptide-binding assay, HLA-A*6801; conditions: Table 16b, Her2/neu-derived
HLA-B*4002 = HLA-B*4002 (Homo sapiens, UniProt P01889, A65T/A93T/A95T/D138N/D201E/D98Y/E176V/E204Q/E69K/K202T/N87E/Q56L/Q94N/R180L/S48T/Y33H/Y91S); test: Class I peptide-binding assay, HLA-B*4002 (B44 supertype); conditions: HER2/neu-derived B44 peptides, Table 27; binding to purified HLA-B*4002
HLA-A*0101 = HLA-A*0101 (Homo sapiens, UniProt P04439, A114D/A174V/A182V/D101N/D185E/E176A/E190D/L180R/Q94H/R68K/S129P/T187R/V100A/V91M/W191G); test: Class I peptide-binding assay, HLA-A*0101
HLA-A*2402 = HLA-A*2402 (Homo sapiens, UniProt P04439, D101N/D140Y/D185E/E176V/E190D/F33S/G103R/G107R/I119L/I121M/I306V/K335N/L105A/L180Q/L300P/N151K/N90K/Q86E/Q94H/R106L/R138H/R89G/T104I/T345S/V100E/W191G/Y123F); test: Class I peptide-binding assay, HLA-A*2402; conditions: Table 19a, CEA-derived A24 binders
[4] = system: peptide-pulsed target cells; conditions: outside investigators; cited from earlier work
[5] = 938mel (A3−, Mage2+, Mage3+) and 624mel (A3+, Mage2+, Mage3+)
[6] = Table 16c, second part, positive/total tested
[7] = Table 18a, CEA-derived A1 binders
[8] = Table 16d, second part, positive/total tested
[9] = SW403 (A3+, p53−) and SW403/p53 transfectant (A3+, p53+)

## p53.172B5K10: p53-derived A3 supertype analog, B at position 5 and K at position 10
[1]
  CTL recognition of wildtype peptide-pulsed targets (in words): recognize analog and wildtype peptide-pulsed targets; also recorded: recognize both the wildtype sequence; also recorded: lyse wildtype-peptide coated targets
[2]
  CTL recognition of tumor / endogenous targets (in words): transfected tumor target cells; also recorded: p53 transfected tumor targets
[2]; listed as p53.172.B5KIO
  CTL recognition of tumor / endogenous targets (in words): induce tumor-reactive CTLs

## CC[C@H](C)[C@H](NC(=O)[C@@H](NC(=O)[C@@H](N)[C@@H](C)O)[C@@H](C)O)C(=O)N[C@@H](CC(N)=O)C(=O)N[C@@H](Cc1ccc(O)cc1)C(=O)N[C@H](C(=O)N[C@@H](CC(C)C)C(=O)N[C@@H](Cc1c[nH]c2ccccc12)C(=O)N[C@@H](CCCNC(=N)N)C(=O)O)[C@@H](C)O [compound 82]
[1]
  pulsed EHM target cell line: 7/7
[2]; [5]
  Tumor target cell line: 2/5

## CC(C)C[C@H](NC(=O)[C@H](CC(C)C)NC(=O)[C@H](CC(C)C)NC(=O)[C@H](Cc1ccccc1)NC(=O)[C@H](Cc1c[nH]cn1)NC(=O)[C@@H](NC(=O)[C@@H](N)CC(C)C)C(C)C)C(=O)N[C@@H](CCCCN)C(=O)N[C@@H](CCCCN)C(=O)O [compound 87]
[2]; [5]
  Tumor target cell line: 0/1
[2]; [6]
  Immunogenicity Tumor: 0/1

## aKXVAAWTLKAAa-NH2 [PADRE®, a=D-alanine, X=cyclohexylalanine]
[3]
  safety in the trial (in words): favorable safety profile

## CC[C@H](C)[C@H](NC(=O)[C@H](C)NC(=O)[C@H](CCSC)NC(=O)[C@H](C)NC(=O)[C@H](CCCNC(=N)N)NC(=O)[C@@H](NC(=O)[C@H](CCCNC(=N)N)NC(=O)[C@@H](NC(=O)CN)[C@@H](C)O)C(C)C)C(=O)N[C@@H](Cc1ccc(O)cc1)C(=O)N[C@@H](CCCCN)C(=O)O [compound 111]
[1]
  pulsed EHM target cell line: 0/1

## CC[C@H](C)[C@H](NC(=O)CNC(=O)[C@H](Cc1ccccc1)NC(=O)[C@@H](NC(=O)[C@@H](N)C(C)C)C(C)C)C(=O)N[C@@H](CC(C)C)C(=O)N[C@H](C(=O)N[C@@H](CCCCN)C(=O)N[C@@H](CCCNC(=N)N)C(=O)N[C@@H](CCCNC(=N)N)C(=O)O)[C@@H](C)CC [compound 58]
HLA-A*0301; Table 16b, Her2/neu-derived
  pIC50: 5.44
HLA-A*1101; Table 16b, Her2/neu-derived
  pIC50: 6.43
HLA-A*3101
  pIC50: 6.54
HLA-A*3301
  pIC50: 6.71
HLA-A*6801
  pIC50: 7.82

## SSCMGGMNR [compound 117]
HLA-A*0301; Table 16d, p53-derived
  pIC50: 6.26
HLA-A*1101; Table 16d, p53-derived
  pIC50: 8.37

## CC[C@H](C)[C@H](NC(=O)[C@@H](NC(=O)[C@@H](NC(=O)[C@H](CO)NC(=O)[C@@H](N)Cc1ccccc1)[C@@H](C)O)[C@@H](C)O)C(=O)N[C@@H](CC(N)=O)C(=O)N[C@@H](Cc1ccc(O)cc1)C(=O)N[C@H](C(=O)N[C@@H](CC(C)C)C(=O)N[C@@H](Cc1c[nH]c2ccccc12)C(=O)N[C@@H](CCCNC(=N)N)C(=O)O)[C@@H](C)O [compound 80]
[1]; [6]
  Immunogenicity Wildtype: 0/2

## CC[C@H](NC(=O)[C@H](CCCNC(=N)N)NC(=O)[C@H](CCCNC(=N)N)NC(=O)[C@@H](NC(=O)[C@@H](N)C(C)C)C(C)C)C(=O)N1CCC[C@H]1C(=O)N[C@@H](Cc1c[nH]cn1)C(=O)N[C@@H](Cc1c[nH]cn1)C(=O)N[C@@H](CCC(=O)O)C(=O)N[C@@H](CCCCN)C(=O)O [VVRRBPHHEK]
[1]; Table 20
  Immunogenicity Wildtype: 1/2
[2]; Table 20
  Immunogenicity Tumor: 1/2

## CC[C@H](C)[C@H](NC(=O)[C@@H](NC(=O)[C@H](CS)NC(=O)[C@@H](NC(=O)[C@@H]1CCCN1C(=O)[C@@H]1CCCN1C(=O)[C@H](CCC(N)=O)NC(=O)[C@@H]1CCCN1C(=O)[C@H](CC(C)C)NC(=O)[C@H](CCCNC(=N)N)NC(=O)[C@H](CCC(=O)O)NC(=O)CN)[C@@H](C)CC)[C@@H](C)O)C(=O)O [compound 493]
HLA-B*4002
  pIC50: 8.02

## CC(C)C[C@H](NC(=O)[C@H](C)NC(=O)[C@@H]1CCCN1C(=O)[C@H](CO)NC(=O)[C@H](Cc1ccc(O)cc1)NC(=O)[C@@H](NC(=O)[C@@H](N)CS)[C@@H](C)O)C(=O)N[C@@H](CC(N)=O)C(=O)N[C@@H](CCCCN)C(=O)O [compound 107]
[1]
  pulsed EHM target cell line: 0/1

## CC[C@H](C)[C@H](NC(=O)CNC(=O)[C@H](Cc1ccccc1)NC(=O)[C@@H](NC(=O)[C@@H](N)C(C)C)C(C)C)C(=O)N[C@@H](CC(C)C)C(=O)N[C@H](C(=O)N[C@@H](CCCCN)C(=O)N[C@@H](CCCNC(=N)N)C(=O)O)[C@@H](C)CC
[2]; Table 20
  Immunogenicity Tumor: 0/1

## H-LTQEFVQENY-OH
HLA-A*0101; Table 18c, Mage2/3-derived A1 binders
  pIC50: 7.02

## H-ITEKNSCLY-OH
HLA-A*0101; [7]
  pIC50: 6.19

## C[C@@H](O)[C@H](NC(=O)[C@@H](N)CCCCN)C(=O)N[C@@H](Cc1ccc(O)cc1)C(=O)N[C@@H](CCC(N)=O)C(=O)NCC(=O)N[C@@H](CO)C(=O)N[C@@H](Cc1ccc(O)cc1)C(=O)NCC(=O)N[C@@H](Cc1ccccc1)C(=O)N[C@@H](CCCCN)C(=O)O
[1]; Table 20
  Immunogenicity Wildtype: 0/1
[2]; Table 20
  Immunogenicity Tumor: 0/1

## H-LWWYNGQSL-OH
HLA-A*2402
  pIC50: 5.83

## CC(C)[C@H](NC(=O)[C@@H](N)CCCNC(=N)N)C(=O)N[C@@H](CS)C(=O)N[C@@H](C)C(=O)N[C@@H](CS)C(=O)N1CCC[C@H]1C(=O)NCC(=O)N[C@@H](CCCNC(=N)N)C(=O)O [compound 124]
[1]
  pulsed EHM target cell line: 0/1

## MAGE3.189: MAGE3-derived A3 supertype wildtype peptide (Table 16c) (LLGDNQIMPK)
[4]
  CTL induction / antigenicity reported in the literature (in words): antigenic

## CC[C@H](NC(=O)[C@H](CCCNC(=N)N)NC(=O)[C@H](CCCNC(=N)N)NC(=O)[C@@H](NC(=O)[C@@H](N)C(C)C)C(C)C)C(=O)N1CCC[C@H]1C(=O)N[C@@H](Cc1c[nH]cn1)C(=O)N[C@@H](Cc1c[nH]cn1)C(=O)N[C@@H](CCC(=O)O)C(=O)N[C@@H](CCCCN)C(=O)O [compound 116]
[1]; [8]
  Immunogenicity Wildtype: 1/2
[1]
  pulsed EHM target cell line: 1/2
[2]; [9]
  Tumor target cell line: 1/2
[2]; [8]
  Immunogenicity Tumor: 1/2

## CC[C@H](C)[C@H](NC(=O)[C@@H](N)[C@@H](C)O)C(=O)N[C@@H](CO)C(=O)N1CCC[C@H]1C(=O)N[C@@H](CC(C)C)C(=O)N[C@@H](CC(N)=O)C(=O)N[C@H](C(=O)N[C@@H](CO)C(=O)N[C@@H](Cc1ccc(O)cc1)C(=O)N[C@@H](CCCCN)C(=O)O)[C@@H](C)O
[1]; Table 20
  Immunogenicity Wildtype: 2/3

## H-LTDNNSGSY-OH
HLA-A*0101; [7]
  pIC50: 7.02

## C[C@@H](O)[C@H](NC(=O)[C@@H](N)CCCCN)C(=O)N[C@@H](Cc1ccc(O)cc1)C(=O)N[C@@H](CCC(N)=O)C(=O)NCC(=O)N[C@@H](CO)C(=O)N[C@@H](Cc1ccc(O)cc1)C(=O)NCC(=O)N[C@@H](Cc1ccccc1)C(=O)N[C@@H](CCCCN)C(=O)O [compound 104]
[1]; [8]
  Immunogenicity Wildtype: 0/1
[1]
  pulsed EHM target cell line: 0/1
[2]; [9]
  Tumor target cell line: 0/1
[2]; [8]
  Immunogenicity Tumor: 0/1

## H-HSDSNFSPQY-OH
HLA-A*0101; [7]
  pIC50: 7.35

## MAGE3.196 9-mer: MAGE3-derived B7 motif wildtype 9-mer
[4]
  CTL induction / antigenicity reported in the literature (in words): antigenicity

## CC[C@H](C)[C@H](NC(=O)CNC(=O)[C@H](Cc1ccccc1)NC(=O)[C@@H](NC(=O)[C@@H](N)C(C)C)C(C)C)C(=O)N[C@@H](CC(C)C)C(=O)N[C@H](C(=O)N[C@@H](CCCCN)C(=O)N[C@@H](CCCNC(=N)N)C(=O)O)[C@@H](C)CC [compound 57]
[1]; positive = 10% specific lysis above background (51Cr release) or twice background and at least 50 pg IFNγ/well in at least one of 48 wells
  Number of CTL inductions yielding positive responses/total tested, Wildtype-pulsed EHM target cell line: 1/3

## CSCC[C@H](NC(=O)[C@H](CC(C)C)NC(=O)[C@H](CCCCN)NC(=O)[C@H](CCCCN)NC(=O)[C@H](Cc1c[nH]cn1)NC(=O)[C@H](CCCNC(=N)N)NC(=O)[C@H](CO)NC(=O)[C@@H](NC(=O)[C@@H](N)CO)[C@@H](C)O)C(=O)N[C@@H](Cc1ccccc1)C(=O)N[C@@H](CCCCN)C(=O)O [compound 126]
[1]
  pulsed EHM target cell line: 1/2
